One assay deals with T1, MAO-A (Rattus norvegicus, UniProt P21396).
T1 construct: tissue Cerep; host or cells: rat cerebral cortex
T1 sequence (P21396 1-526): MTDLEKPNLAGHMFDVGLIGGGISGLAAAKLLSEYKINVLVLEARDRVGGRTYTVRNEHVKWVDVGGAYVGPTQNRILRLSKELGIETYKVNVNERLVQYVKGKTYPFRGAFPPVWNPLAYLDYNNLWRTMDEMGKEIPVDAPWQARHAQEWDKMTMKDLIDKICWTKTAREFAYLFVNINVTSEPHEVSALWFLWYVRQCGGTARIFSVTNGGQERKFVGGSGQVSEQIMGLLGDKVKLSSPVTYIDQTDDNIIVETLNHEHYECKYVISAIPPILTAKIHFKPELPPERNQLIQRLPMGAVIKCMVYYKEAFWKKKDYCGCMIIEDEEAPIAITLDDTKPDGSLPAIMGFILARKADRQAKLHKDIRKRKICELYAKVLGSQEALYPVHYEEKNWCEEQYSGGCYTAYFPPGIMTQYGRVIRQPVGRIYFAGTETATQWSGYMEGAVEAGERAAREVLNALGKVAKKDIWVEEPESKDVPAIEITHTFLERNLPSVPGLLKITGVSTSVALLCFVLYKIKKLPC
It counts as binding. Conditions: 1 h, 1.0E-06 M.

Another assay concerns the target T2, dopamine transporter (h) (Homo sapiens, UniProt Q01959).
T2 construct: host or cells: CHO cells
Format: binding. The conditions noted are these: 1.0E-06 M.

In another assay the test system is C57BL/6J mice. Briefly: Pavlovian fear learning and memory, non-manipulated mice. The conditions noted are these: 1 or 3 mg/kg oral, 2 h before. Format: in vivo, mouse.
Another assay has as its target Kv1.5 (Homo sapiens, UniProt P22460). Briefly: Ion channel selectivity patch clamp. It counts as cell-based. Conditions: Voltage (+40 mV). (The patch-clamp technique gives a direct electrical read-out from membranes.)
The target of another assay is Cav1.2 (Homo sapiens, UniProt Q13936). Briefly: Ion channel selectivity patch clamp.
The target in another assay is T3, hTRPA1 (Homo sapiens, UniProt O75762).
T3 construct: The cDNAs for various full-length ion channels were subcloned into pcDNA5/TO; expressed in transfected cells; host or cells: T-REx-293 (general cell paragraph)
T3 sequence (O75762 whole entry): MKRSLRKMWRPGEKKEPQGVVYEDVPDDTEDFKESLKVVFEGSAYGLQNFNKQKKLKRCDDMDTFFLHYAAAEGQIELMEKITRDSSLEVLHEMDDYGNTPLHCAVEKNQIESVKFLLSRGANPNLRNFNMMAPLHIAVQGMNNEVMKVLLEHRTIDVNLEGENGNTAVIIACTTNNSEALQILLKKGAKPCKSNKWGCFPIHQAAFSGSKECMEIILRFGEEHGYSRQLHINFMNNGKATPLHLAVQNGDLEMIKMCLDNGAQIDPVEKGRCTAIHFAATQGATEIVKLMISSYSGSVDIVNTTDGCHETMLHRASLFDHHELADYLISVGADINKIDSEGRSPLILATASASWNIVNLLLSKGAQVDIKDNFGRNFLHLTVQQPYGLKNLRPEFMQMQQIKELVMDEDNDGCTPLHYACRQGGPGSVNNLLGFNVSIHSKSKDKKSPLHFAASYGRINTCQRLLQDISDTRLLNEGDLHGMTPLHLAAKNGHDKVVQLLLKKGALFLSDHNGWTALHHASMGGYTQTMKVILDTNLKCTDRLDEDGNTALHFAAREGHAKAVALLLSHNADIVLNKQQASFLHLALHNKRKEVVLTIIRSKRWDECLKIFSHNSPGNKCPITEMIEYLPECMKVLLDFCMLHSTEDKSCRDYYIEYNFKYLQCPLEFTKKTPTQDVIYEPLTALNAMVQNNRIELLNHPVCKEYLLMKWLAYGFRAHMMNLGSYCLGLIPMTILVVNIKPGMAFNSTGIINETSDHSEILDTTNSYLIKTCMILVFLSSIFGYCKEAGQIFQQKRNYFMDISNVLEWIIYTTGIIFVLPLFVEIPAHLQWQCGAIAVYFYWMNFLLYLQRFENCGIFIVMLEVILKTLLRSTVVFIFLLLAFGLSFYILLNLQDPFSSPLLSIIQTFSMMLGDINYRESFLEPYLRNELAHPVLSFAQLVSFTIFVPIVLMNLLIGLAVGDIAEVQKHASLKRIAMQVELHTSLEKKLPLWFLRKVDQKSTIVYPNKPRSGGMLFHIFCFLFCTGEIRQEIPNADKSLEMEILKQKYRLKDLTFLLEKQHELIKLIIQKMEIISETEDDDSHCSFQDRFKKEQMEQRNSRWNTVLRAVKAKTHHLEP
The assay is described as follows: Ion channel selectivity patch clamp. It counts as cell-based.

In another assay the target is rTRPC5 (Rattus norvegicus, UniProt Q8VD38). The assay is described as follows: Whole-cell manual patch clamp. It counts as cell-based.
Chain of rTRPC5 (Q8VD38 1-974): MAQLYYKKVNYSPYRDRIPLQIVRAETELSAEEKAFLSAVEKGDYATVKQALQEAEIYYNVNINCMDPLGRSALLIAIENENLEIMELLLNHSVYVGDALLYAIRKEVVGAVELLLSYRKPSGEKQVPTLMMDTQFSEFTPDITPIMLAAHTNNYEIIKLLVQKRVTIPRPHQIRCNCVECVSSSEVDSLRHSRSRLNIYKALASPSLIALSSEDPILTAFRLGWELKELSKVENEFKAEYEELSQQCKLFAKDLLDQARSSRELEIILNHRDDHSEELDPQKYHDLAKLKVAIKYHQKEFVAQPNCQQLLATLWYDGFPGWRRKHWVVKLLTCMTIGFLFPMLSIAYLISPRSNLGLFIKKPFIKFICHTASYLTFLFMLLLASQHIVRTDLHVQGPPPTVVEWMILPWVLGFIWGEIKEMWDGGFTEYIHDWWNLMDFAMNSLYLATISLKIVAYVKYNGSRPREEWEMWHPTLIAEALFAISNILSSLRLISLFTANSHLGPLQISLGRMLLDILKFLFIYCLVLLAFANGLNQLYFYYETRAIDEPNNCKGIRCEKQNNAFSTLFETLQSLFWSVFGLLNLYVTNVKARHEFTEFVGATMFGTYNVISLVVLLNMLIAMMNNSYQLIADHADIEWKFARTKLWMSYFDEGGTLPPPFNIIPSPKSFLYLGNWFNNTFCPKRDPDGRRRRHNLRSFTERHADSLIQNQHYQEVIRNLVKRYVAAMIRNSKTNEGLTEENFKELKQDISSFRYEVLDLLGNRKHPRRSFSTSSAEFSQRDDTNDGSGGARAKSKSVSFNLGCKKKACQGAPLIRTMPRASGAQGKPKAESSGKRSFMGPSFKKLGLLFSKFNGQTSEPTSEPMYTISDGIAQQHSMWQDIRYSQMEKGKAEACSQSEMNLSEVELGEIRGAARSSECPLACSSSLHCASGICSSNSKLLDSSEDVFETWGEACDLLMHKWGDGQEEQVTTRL
The target of a further assay is T4, CB2 (h) (Homo sapiens, UniProt P34972).
T4 construct: host or cells: CHO cells
T4 sequence (P34972 whole entry): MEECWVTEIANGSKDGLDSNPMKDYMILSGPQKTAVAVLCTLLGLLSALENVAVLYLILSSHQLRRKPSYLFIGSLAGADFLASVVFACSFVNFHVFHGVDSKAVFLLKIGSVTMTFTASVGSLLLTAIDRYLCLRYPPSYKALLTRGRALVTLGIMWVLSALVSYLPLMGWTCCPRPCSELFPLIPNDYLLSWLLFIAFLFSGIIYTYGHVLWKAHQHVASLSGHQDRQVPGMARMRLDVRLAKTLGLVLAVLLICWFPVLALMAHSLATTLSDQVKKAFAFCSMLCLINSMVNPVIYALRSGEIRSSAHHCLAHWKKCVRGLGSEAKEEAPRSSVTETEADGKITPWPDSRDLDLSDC
It counts as binding. Conditions: 1.0E-06 M.

In a further assay the target is μ (MOP) (h) (Homo sapiens, UniProt P35372). The assay is described as follows: biochemical.
Chain of μ (MOP) (h) (P35372 whole entry): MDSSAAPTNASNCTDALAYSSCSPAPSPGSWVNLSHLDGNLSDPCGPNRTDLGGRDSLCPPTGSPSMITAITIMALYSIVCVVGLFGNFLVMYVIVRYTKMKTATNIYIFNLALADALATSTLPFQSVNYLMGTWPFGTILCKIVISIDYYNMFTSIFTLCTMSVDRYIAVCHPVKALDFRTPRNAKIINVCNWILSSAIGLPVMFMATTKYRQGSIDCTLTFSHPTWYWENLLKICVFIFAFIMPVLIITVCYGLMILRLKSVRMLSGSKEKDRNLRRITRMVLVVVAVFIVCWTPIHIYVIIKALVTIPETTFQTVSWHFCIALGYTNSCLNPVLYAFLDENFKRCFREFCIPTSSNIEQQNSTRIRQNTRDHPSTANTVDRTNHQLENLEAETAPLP
The target of another assay is T5, Kv1.3 (Homo sapiens, UniProt P22001).
T5 construct: expressed in transfected cells
Briefly: Ion channel selectivity patch clamp. Conditions: Voltage (+20 mV). Format: cell-based.

The target of the next assay is T6, MC1 (Mus musculus, UniProt Q01727).
T6 construct: (endogenous); host or cells: B16-F1 cells
T6 sequence (Q01727 whole entry): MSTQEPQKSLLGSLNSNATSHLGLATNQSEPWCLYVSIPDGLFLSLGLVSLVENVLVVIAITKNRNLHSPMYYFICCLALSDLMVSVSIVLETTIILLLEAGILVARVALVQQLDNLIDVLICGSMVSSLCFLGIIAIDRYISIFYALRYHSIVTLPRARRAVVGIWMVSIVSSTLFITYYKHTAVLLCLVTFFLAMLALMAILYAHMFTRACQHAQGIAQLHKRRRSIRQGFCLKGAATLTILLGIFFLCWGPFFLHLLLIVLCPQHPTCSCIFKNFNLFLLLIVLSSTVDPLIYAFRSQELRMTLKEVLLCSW
It counts as binding. Conditions: 1.0E-06 M.

A further assay addresses hERG (Homo sapiens, UniProt Q12809). Briefly: Ion channel selectivity patch clamp.
Another assay addresses T7, A3 (h) (Homo sapiens, UniProt P0DMS8).
T7 construct: host or cells: HEK-293 cells
T7 sequence (P0DMS8 1-318): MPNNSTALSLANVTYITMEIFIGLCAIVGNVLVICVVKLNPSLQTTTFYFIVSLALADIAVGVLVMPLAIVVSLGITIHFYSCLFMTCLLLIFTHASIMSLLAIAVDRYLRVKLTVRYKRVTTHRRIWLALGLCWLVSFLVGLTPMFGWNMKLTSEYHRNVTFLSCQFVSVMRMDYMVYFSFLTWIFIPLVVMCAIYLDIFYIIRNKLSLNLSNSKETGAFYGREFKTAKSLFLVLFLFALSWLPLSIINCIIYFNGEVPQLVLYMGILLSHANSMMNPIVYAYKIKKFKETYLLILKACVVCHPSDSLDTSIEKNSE
It counts as binding. Conditions: 1.0E-06 M.

The next assay deals with T8, β3 (h) (Homo sapiens, UniProt P13945).
T8 construct: (endogenous); host or cells: SK-N-MC cells
T8 sequence (P13945 whole entry): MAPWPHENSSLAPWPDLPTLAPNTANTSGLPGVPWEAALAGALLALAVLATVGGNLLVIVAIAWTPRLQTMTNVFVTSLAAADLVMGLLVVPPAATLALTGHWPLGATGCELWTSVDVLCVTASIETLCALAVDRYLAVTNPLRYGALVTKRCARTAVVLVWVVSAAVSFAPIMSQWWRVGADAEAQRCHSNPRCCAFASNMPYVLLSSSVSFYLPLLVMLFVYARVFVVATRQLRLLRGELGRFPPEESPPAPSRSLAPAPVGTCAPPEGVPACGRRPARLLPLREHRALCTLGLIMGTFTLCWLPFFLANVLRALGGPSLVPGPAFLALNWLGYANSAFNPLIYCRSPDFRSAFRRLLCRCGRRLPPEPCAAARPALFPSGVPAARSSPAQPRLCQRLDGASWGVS
It counts as binding. Conditions: 1.0E-06 M.

The next assay concerns the target T9, mTRPC5 (Mus musculus, UniProt Q9QX29).
T9 construct: The cDNAs for various full-length ion channels were subcloned into pcDNA5/TO; expressed in transfected cells
Briefly: Whole-cell manual patch clamp. Format: cell-based. The conditions noted are these: La3+ (80 μM).

The next assay relates to BZD (central). Format: binding, rat. The conditions noted are these: 1.0E-06 M.
In the next assay the target is 5-HT7 (h) (Homo sapiens, UniProt P34969). Briefly: biochemical.
Chain of 5-HT7 (h) (P34969 whole entry): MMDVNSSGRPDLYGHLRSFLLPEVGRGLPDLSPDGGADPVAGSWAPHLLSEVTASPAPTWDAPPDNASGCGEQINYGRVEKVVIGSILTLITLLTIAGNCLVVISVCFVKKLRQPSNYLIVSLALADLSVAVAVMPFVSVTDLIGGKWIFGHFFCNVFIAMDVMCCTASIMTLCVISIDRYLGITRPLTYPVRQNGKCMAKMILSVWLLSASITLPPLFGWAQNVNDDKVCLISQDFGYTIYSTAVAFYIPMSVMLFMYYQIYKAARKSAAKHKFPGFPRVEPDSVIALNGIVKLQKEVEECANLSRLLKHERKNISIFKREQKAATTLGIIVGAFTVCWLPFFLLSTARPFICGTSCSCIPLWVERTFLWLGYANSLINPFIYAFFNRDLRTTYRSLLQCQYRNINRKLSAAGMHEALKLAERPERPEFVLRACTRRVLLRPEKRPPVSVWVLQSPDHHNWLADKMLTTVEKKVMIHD
The target of a further assay is TRPM8 (Homo sapiens, UniProt Q7Z2W7). The assay is described as follows: cell-based.

Each structure is given as a SMILES string. “Also recorded” adds a separate entry of the source. Like-named read-outs stand apart in the source and are kept apart here.

T2 sequence (Q01959 whole entry): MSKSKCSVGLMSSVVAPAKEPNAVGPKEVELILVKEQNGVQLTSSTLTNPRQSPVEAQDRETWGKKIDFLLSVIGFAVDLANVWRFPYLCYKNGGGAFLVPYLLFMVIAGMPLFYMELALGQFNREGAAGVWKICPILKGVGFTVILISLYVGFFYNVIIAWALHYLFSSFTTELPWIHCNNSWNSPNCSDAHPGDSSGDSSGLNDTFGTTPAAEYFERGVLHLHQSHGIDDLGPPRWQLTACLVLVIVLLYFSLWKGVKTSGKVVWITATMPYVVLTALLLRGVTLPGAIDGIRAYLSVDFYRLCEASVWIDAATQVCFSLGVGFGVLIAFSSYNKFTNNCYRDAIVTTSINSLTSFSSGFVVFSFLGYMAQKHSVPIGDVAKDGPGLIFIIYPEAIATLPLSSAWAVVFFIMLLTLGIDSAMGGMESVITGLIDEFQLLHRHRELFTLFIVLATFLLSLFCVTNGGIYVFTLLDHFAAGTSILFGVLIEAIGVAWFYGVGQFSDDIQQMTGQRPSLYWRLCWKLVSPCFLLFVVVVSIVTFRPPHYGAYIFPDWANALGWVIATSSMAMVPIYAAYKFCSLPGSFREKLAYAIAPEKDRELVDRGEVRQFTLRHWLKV

`Cn1c(=O)n(CCCO)c(=O)c2c1nc(Oc1cccc(Cl)c1)n2Cc1ccc(Cl)cc1` [HC-070]: the inhibition at 1 µM turned out to be 12.6% at MAO-A (read-out: % Inhibition 1st); 13.1% on MAO-A (read-out: % Inhibition 2nd); 12.8% on MAO-A (read-out: % Inhibition Mean); 8.9% on dopamine transporter (h) (read-out: % Inhibition 1st); 8.6% at dopamine transporter (h) (read-out: % Inhibition 2nd); 8.8% at dopamine transporter (h) (read-out: % Inhibition Mean). In the assay on C57BL/6J mice, the “CS-US fear learning (freezing)” value is given as “without an effect; also recorded: did not affect fear learning”. Also, the “fear memory expression to the CS” value with C57BL/6J mice was “no drug effect”. Besides, in the assay on C57BL/6J mice, the “fear memory expression to the context” value was “without effect; also recorded: no drug effect”. Moreover, the 50% inhibitory concentration (IC50) on Kv1.5 was above 1900 nM; on Cav1.2, above 1900 nM; at hTRPA1 (2-10 µM AITC, read-out: IC50) it was above 1900 nM.

As for `Cn1c(=O)n(CCCO)c(=O)c2c1nc(Oc1cccc(OC(F)(F)F)c1)n2Cc1ccc(Cl)cc1` [HC-608], the half-inhibitory concentration (IC50) at rTRPC5 is around 0.41 nM; on Kv1.3, 1050 ± 340 nM; against hERG, 1150 ± 130 nM; against mTRPC5 it was around 0.62 nM; at TRPM8, above 1640 nM; against Cav1.2, above 1640 nM. This compound registered an IC50 on hTRPA1 above 1640 nM. Moreover, the inhibition at 1 µM was 16.6% at CB2 (h) (read-out: % Inhibition 1st); 25.1% on CB2 (h) (read-out: % Inhibition 2nd); 20.9% on CB2 (h) (read-out: % Inhibition Mean); 0.1% at μ (MOP) (h) (read-out: % Inhibition 1st); -6.8% at μ (MOP) (h) (read-out: % Inhibition 2nd); -3.3% at μ (MOP) (h) (read-out: % Inhibition Mean). Besides, the inhibition at 1 µM at MC1 (read-out: % Inhibition 1st) is 1%; at MC1 (read-out: % Inhibition 2nd), -3.6%; on MC1 (read-out: % Inhibition Mean), -1.3%; at MAO-A (read-out: % Inhibition 1st), -3.8%; at MAO-A (read-out: % Inhibition 2nd), 3.6%; on MAO-A (read-out: % Inhibition Mean) it was -0.1%. Also, the inhibition at 1 µM at dopamine transporter (h) (read-out: % Inhibition 1st) is 22.8%; at dopamine transporter (h) (read-out: % Inhibition 2nd) it was 37.1%; on dopamine transporter (h) (read-out: % Inhibition Mean) it was 29.9%; at A3 (h) (read-out: % Inhibition 1st), 28.3%; at A3 (h) (read-out: % Inhibition 2nd) it was 36.4%; at A3 (h) (read-out: % Inhibition Mean) it was 32.3%. For the same compound, the inhibition at 1 µM is 0.9% at β3 (h) (read-out: % Inhibition 1st); -6.7% at β3 (h) (read-out: % Inhibition 2nd); -2.9% on β3 (h) (read-out: % Inhibition Mean); 12.1% at 5-HT7 (h) (read-out: % Inhibition 1st); 10.9% on 5-HT7 (h) (read-out: % Inhibition 2nd); 11.5% at 5-HT7 (h) (read-out: % Inhibition Mean). Moreover, the “% Inhibition 1st” value in the assay with BZD (central) was -3%. The “% Inhibition 2nd” value with BZD (central) is -31.5%. Further, the “% Inhibition Mean” value in the assay with BZD (central) is -17.3%.

The inhibition is the change of the read-out against control, counted positive when it falls. What is called IC50 is the concentration at which inhibition is half-maximal.
